Some test systems named below: IGROV1 ovarian; MDA-MB-231 breast; NCI/ADR-RES ovarian; T-47D breast; COLO 205 colon; EKVX NSCLC; OVCAR-4 ovarian; BT-549 breast; NCI-H226 lung; RPMI-8226 leukemia; SF-539 CNS; A549 NSCLC; SF-295 CNS; LOX IMVI melanoma; 786-0 renal.
Common to all, as to test: growth of human tumour cells (NCI), 48 h

Each structure is given as a SMILES string.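 Exposure lasted 48 hours, with cells grown in 96-well plates and compounds tested at five concentrations. TGI denotes the concentration required for complete inhibition of growth.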

We go through one compound from PubChem BioAssay (NCI).

Turning to `COc1cccc2c1C(=O)c1ccc3cc(CO)cc(O)c3c1C2=O`, the TGI with IGROV1 ovarian was determined as 3.33 µM; with MDA-MB-231 breast, 2.58 µM; with NCI/ADR-RES ovarian it was 2.28 µM; with T-47D breast it was 4.96 µM; with COLO 205 colon it was 3.32 µM; with EKVX NSCLC, 4.89 µM. In addition, the TGI amounted to 2.03 µM with OVCAR-4 ovarian; 6.31 µM in the experiment with BT-549 breast; 5.54 µM in the experiment with NCI-H226 lung; 5.1 µM in the experiment with RPMI-8226 leukemia; 1.44 µM in the experiment with SF-539 CNS; 2.76 µM in the experiment on A549 NSCLC. In addition, the TGI is 7.44 µM with SF-295 CNS, 5.96 µM in the experiment on LOX IMVI melanoma and 4.24 µM in the experiment with 786-0 renal.
